Here are results for 29 compounds from patent publication US10099993B2, “Metabotropic glutamate receptor positive allosteric modulators (PAMS) and uses thereof” (Sanford-Burnham Medical Research Institute, priority 2014, dated 2018).

One assay has as its target mGlu2 (Rattus norvegicus (Rat), UniProt P31421). In words: mGlu2 GIRK thallium flux assay.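 As to all read-outs here: Cell-based assay, rate of fluorescence rise right after thallium plus agonist addition read on a kinetic imaging plate reader, normalized to vehicle and maximal agonist control.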 The settings on record: for EC50: read-out: mGlu2 PAM EC50, test compound, then EC20 glutamate […] later in the presence of thallium; for EC50 / mGlu2 PAM Max: PAM mode, mean ± SEM, at least three experiments; for Emax: read-out: mGlu2 PAM Max; for mGlu2 PAM Max: % Glutamate Max.
The next assay has as its target mGlu3 (Rattus norvegicus (Rat), UniProt P31422). The assay can be described thus: mGlu3 GIRK thallium flux assay.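 As to all read-outs here: kinetic fluorescence slope read shortly after thallium plus agonist addition, scaled between vehicle and maximal agonist control.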 The settings on record: for EC50: read-out: mGlu3 PAM EC50, test compound, then EC20 glutamate […] later in the presence of thallium; for Emax: read-out: mGlu3 PAM Max.

Each structure is given as a SMILES string.

Chain of mGlu2 (P31421 19-872): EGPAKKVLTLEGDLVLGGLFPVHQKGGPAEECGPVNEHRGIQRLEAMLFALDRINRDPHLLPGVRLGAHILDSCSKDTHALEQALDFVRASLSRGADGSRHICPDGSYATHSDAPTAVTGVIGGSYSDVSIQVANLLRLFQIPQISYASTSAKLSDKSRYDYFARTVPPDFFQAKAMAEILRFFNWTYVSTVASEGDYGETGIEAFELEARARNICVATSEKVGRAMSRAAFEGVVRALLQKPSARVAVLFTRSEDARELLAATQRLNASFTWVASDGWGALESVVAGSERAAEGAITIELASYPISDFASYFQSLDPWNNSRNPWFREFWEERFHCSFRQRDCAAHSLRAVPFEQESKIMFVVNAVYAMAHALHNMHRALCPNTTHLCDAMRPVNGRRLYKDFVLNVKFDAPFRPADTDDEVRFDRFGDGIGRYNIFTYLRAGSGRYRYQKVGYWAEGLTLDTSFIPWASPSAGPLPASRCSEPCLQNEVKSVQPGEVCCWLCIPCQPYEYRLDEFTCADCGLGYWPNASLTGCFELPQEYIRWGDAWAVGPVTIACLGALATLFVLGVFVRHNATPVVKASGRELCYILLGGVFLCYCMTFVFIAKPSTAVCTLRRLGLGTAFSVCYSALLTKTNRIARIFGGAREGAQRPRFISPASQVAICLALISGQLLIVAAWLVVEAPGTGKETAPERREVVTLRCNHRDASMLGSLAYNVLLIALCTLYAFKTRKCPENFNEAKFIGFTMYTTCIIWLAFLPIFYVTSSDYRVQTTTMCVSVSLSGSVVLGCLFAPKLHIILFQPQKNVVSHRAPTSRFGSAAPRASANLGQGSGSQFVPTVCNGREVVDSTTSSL
Chain of mGlu3 (P31422 23-879): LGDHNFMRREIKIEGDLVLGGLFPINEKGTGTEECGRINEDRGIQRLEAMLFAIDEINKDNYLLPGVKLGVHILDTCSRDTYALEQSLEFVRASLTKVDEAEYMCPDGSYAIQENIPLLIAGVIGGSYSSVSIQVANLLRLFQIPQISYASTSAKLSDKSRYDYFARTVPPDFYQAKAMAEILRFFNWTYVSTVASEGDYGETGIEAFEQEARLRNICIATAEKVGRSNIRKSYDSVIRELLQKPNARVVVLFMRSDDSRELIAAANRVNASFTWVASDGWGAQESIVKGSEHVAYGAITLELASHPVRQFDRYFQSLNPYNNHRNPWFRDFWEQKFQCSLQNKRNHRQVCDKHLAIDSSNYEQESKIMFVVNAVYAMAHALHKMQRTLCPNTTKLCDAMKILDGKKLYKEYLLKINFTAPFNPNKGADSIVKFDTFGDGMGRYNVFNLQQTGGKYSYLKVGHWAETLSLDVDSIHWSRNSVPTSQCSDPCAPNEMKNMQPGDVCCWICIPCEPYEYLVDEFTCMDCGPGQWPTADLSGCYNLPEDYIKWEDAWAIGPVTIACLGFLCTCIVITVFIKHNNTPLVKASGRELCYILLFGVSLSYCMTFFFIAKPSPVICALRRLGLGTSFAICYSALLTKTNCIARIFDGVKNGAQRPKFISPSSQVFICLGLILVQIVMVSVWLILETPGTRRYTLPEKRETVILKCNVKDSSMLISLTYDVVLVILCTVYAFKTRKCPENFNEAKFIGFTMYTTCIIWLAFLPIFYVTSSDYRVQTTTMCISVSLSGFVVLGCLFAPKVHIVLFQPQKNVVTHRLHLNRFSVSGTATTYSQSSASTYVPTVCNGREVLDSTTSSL

By EC50 is commonly meant the concentration that produces a half-maximal response. With `Cc1c(OCc2ccc(-c3cccc(C(=O)O)c3)o2)ccc(C(=O)CC(C)(C)C)c1O` [compound 158, 3-(5-((4-(3,3-Dimethylbutanoyl)-3-hydroxy-2-methylphenoxy)methyl)furan-2-yl)benzoic acid], the EC50 on mGlu2 turned out to be 0.328 µM; at mGlu3 (PAM mode, mean ± SEM) it was 0.421 ± 0.005 µM. Also, the Emax at mGlu2 is 106 ± 3.8%; at mGlu3, 110 ± 3.9%.

Take `CCCc1c(OCCCCOc2ccc(C(=O)O)cc2C)ccc(C(C)=O)c1O` [Compound 191, 4-(4-(4-Acetyl-3-hydroxy-2-propylphenoxy)butoxy)-3-methylbenzoic acid]: the Emax was 43.8 ± 5.4% on mGlu2 and 0.1 ± 7.7% at mGlu3.

Consider `Cc1c(OCc2cccc(-c3ccc(F)c(C(=O)O)c3)c2)ccc(C(=O)CC(C)(C)C)c1O` [compound 135, 3′-((4-(3,3-Dimethylbutanoyl)-3-hydroxy-2-methylphenoxy)methyl)-4-fluoro-[1,1′-biphenyl]-3-carboxylic acid], for which the EC50 at mGlu2 turned out to be 0.208 ± 0.02 µM; on mGlu3 (PAM mode, mean ± SEM), 0.587 ± 0.129 µM. Also, the Emax at mGlu2 was found to be 88.5 ± 3.8%; at mGlu3, 74.4 ± 5%.

On to `Cc1c(OCCCCOc2ccc3c(c2)B(O)OC3)ccc(C(=O)CC(C)(C)C)c1O` [compound 94, 1-(2-Hydroxy-4-(4-((1-hydroxy-1,3-dihydrobenzo [c][1,2]oxaborol-6-yl)oxy)butoxy)-3-methylphenyl)-3,3-dimethylbutan-1-one], for which the values for the Emax on mGlu2 and at mGlu3 were 83.9 ± 3.4% and 94 ± 3.8%, respectively.

For `Cc1c(OCc2cccc(-c3ccc(Cl)c(C(=O)O)c3)c2)ccc(C(=O)CC(C)C)c1O` [compound 172], at mGlu2, the “mGlu2 PAM Max” value turned out to be 73.7 ± 1.2% and the EC50 worked out at 0.763 ± 0.04 µM. Also, the EC50 on mGlu3 (PAM mode, mean ± SEM) is more than 10 µM.

On to `COc1ccc(C(=O)NCC(C)C)cc1OCCCCOc1ccc(C(=O)CC(C)(C)C)c(O)c1C` [compound 110, 3-(4-(4-(3,3-Dimethylbutanoyl)-3-hydroxy-2-methylphenoxy)butoxy)-N-isobutyl-4-methoxybenzamide], for which the half-maximal effective concentration (EC50) at mGlu2 is 6.4 ± 0.389 µM; on mGlu3 (PAM mode, mean ± SEM) it was more than 30 µM. Moreover, the values for the Emax at mGlu2 and on mGlu3 were 48.4 ± 5.5% and 31.7 ± 8.5%, respectively.

For the compound `COc1ccc(B2OC(C)(C)C(C)(C)O2)cc1OCCCCOc1ccc(C(=O)CC(C)(C)C)c(O)c1C` [compound 87, 1-(2-Hydroxy-4-(4-(2-methoxy-5-(4,4,5,5-tetramethyl-1,3,2-dioxaborolan-2-yl)phenoxy)butoxy)-3-methylphenyl)-3,3-dimethylbutan-1-one], the Emax was determined as 49.5 ± 3.5% on mGlu2 and 24.9 ± 9.6% on mGlu3.

Consider `Cc1c(OCc2cccc(-c3cccc(C(=O)O)c3)c2)ccc(C(=O)CC(C)(C)C)c1O` [compound 127, 3′-((4-(3,3-Dimethylbutanoyl)-3-hydroxy-2-methylphenoxy)methyl)-[1,1′-biphenyl]-3-carboxylic acid], for which the EC50 on mGlu2 was 0.219 ± 0.043 µM; on mGlu3 (PAM mode, mean ± SEM) it was 0.343 ± 0.04 µM. For the same compound, the Emax worked out at 91.1 ± 2.6% at mGlu2 and 104 ± 2.4% on mGlu3.

As for `CC(=O)c1ccc(OCc2cccc(-c3cccc(C(=O)O)c3)c2)c(C)c1O` [compound 128, 3′-((4-Acetyl-3-hydroxy-2-methylphenoxy)methyl)-[1,1′-biphenyl]-3-carboxylic acid], the EC50 at mGlu2 was 0.035 ± 0.013 µM; on mGlu3 (PAM mode, mean ± SEM), 1.29 ± 0.781 µM. The Emax on mGlu2 turned out to be 57.9 ± 6.6%; on mGlu3, 67.8 ± 8.7%.

Turning to `Cc1c(OCc2cccc(-c3cc(C(=O)O)cc([N+](=O)[O-])c3)c2)ccc(C(=O)CC(C)(C)C)c1O` [compound 146, 3′-((4-(3,3-Dimethylbutanoyl)-3-hydroxy-2-methylphenoxy)methyl)-5-nitro-[1,1′-biphenyl]-3-carboxylic acid], the EC50 on mGlu2 was found to be 0.564 ± 0.156 µM; on mGlu3 (PAM mode, mean ± SEM), 2.13 ± 0.812 µM. The Emax was 98.7 ± 5.9% at mGlu2 and 74.5 ± 11.7% on mGlu3.

Regarding `Cc1c(OCc2cc(-c3cccc(C(=O)O)c3)cs2)ccc(C(=O)CC(C)(C)C)c1O` [compound 162, 3-(5-((4-(3,3-Dimethylbutanoyl)-3-hydroxy-2-methylphenoxy)methyl)thiophen-3-yl)benzoic acid], the Emax on mGlu2 came out at 102 ± 3.5%; at mGlu3, 106 ± 6.4%.

As for `CCCC(=O)c1ccc(OCc2cccc(-c3cccc(C(=O)O)c3)c2)c(C)c1O` [compound 130, 3′-((4-Butyryl-3-hydroxy-2-methylphenoxy)methyl)-[1,1′-biphenyl]-3-carboxylic acid], the EC50 at mGlu2 is 0.142 ± 0.029 µM; on mGlu3 (PAM mode, mean ± SEM), 1.68 ± 0.753 µM. The Emax stood at 92.9 ± 10.7% at mGlu2 and 81 ± 14.8% on mGlu3.

As for `Cc1c(OCc2cccc(-c3cnc(C(=O)O)cn3)c2)ccc(C(=O)CC(C)(C)C)c1O` [Compound 181, 5-(3-((4-(3,3-Dimethylbutanoyl)-3-hydroxy-2-methylphenoxy)methyl)phenyl)pyrazine-2-carboxylic acid], the EC50 at mGlu2 came to 2.134 ± 0.008 µM; at mGlu3 (PAM mode, mean ± SEM), 4.28 ± 0.064 µM. In addition, the results for the Emax on mGlu2 and at mGlu3 were 105 ± 3.4% and 106 ± 2.1%, respectively.

Turning to `Cc1c(OCc2cccc(-c3ccccc3C(=O)O)c2)ccc(C(=O)CC(C)(C)C)c1O` [compound 138, 3′-((4-(3,3-Dimethylbutanoyl)-3-hydroxy-2-methylphenoxy)methyl)-[1,1′-biphenyl]-2-carboxylic acid], the EC50 at mGlu2 is 0.643 ± 0.137 µM; on mGlu3 (PAM mode, mean ± SEM), more than 10 µM. For the same compound, the Emax turned out to be 42.1 ± 7.1% at mGlu2 and 23.5 ± 4.6% at mGlu3.

Take `COc1ccc(C(=O)O)cc1OCCCCOc1ccc(C(=O)CCC(C)(C)C)c(O)c1C` [compound 96, 3-(4-(4-(4,4-Dimethylpentanoyl)-3-hydroxy-2-methylphenoxy)butoxy)-4-methoxybenzoic acid]: the Emax at mGlu2 was 88.6 ± 0.9%; at mGlu3, 95.3 ± 5%.

On to `COc1ccc(C(=O)NS(=O)(=O)c2ccccc2)cc1OCCCCOc1ccc(C(=O)CC(C)(C)C)c(O)c1C` [compound 113, 3-(4-(4-(3,3-Dimethylbutanoyl)-3-hydroxy-2-methylphenoxy)butoxy)-4-methoxy-N-(phenylsulfonyl)benzamide], for which the EC50 on mGlu2 stood at 0.872 ± 0.004 µM; on mGlu3 (PAM mode, mean ± SEM), 1.08 ± 0.021 µM. Moreover, the Emax at mGlu2 came out at 102 ± 2.9%; on mGlu3, 109 ± 3.5%.

`CC(C)(C)CC(=O)c1ccc(OCc2cccc(-c3cccc(C(=O)O)c3)c2)c(Br)c1O` [Compound 193, 3′-((2-Bromo-4-(3,3-dimethylbutanoyl)-3-hydroxyphenoxy)methyl)-[1,1′-biphenyl]-3-carboxylic acid]: the Emax on mGlu2 was determined as 79.5 ± 20.8%; on mGlu3, 74 ± 9.5%.

With `Cc1c(OCCCCOc2cccc(C(=O)O)c2)ccc(C(=O)CC2CCCC2)c1C` [Compound 23, 3-(4-(4-(2-Cyclopentylacetyl)-2,3-dimethylphenoxy)butoxy)benzoic acid], the EC50 is more than 30 µM at mGlu2 and more than 30 µM at mGlu3 (PAM mode, mean ± SEM).

Turning to `Cc1c(OCc2cccc(-c3cccc(C(=O)O)c3)c2)ccc(C(=O)CCC(C)(C)C)c1O` [compound 148], on mGlu2, the “mGlu2 PAM Max” value is reported as 100 ± 3.9% and the EC50 was found to be 2.11 ± 0.215 µM. Further, the “mGlu3 PAM Max” value at mGlu3 (PAM mode, % Glutamate Max, mean ± SEM) was 101.7 ± 2.7%. Besides, at mGlu3 (PAM mode, mean ± SEM), the EC50 is 2.58 ± 0.272 µM.

`Cc1c(OCCCCOc2ccc(C#N)cc2)ccc(C(=O)CC(C)C)c1C` [compound 77]: the EC50 at mGlu2 was more than 30 µM; at mGlu3 (PAM mode, mean ± SEM), more than 30 µM.

`Cc1c(OCCCCOc2ccc(C#N)cc2)ccc(C(=O)CC2CCCC2)c1C` [compound 76]: the EC50 was more than 30 µM at mGlu2 and more than 30 µM at mGlu3 (PAM mode, mean ± SEM).

On to `COc1ccc(/C(N)=N/O)cc1OCCCCOc1ccc(C(=O)CC(C)(C)C)c(O)c1C` [compound 97, (Z)-3-(4-(4-(3,3-Dimethylbutanoyl)-3-hydroxy-2-methylphenoxy)butoxy)-N′-hydroxy-4-methoxybenzimidamide], for which the EC50 at mGlu2 is more than 10 µM; at mGlu3 (PAM mode, mean ± SEM), more than 30 µM. The values for the Emax at mGlu2 and on mGlu3 were 57.2 ± 1.4% and 24.4 ± 4.7%, respectively.

Consider `COc1ccc(C(=O)NS(C)(=O)=O)cc1OCCCCOc1ccc(C(=O)CC(C)(C)C)c(O)c1C` [compound 93, 3-(4-(4-(3,3-Dimethylbutanoyl)-3-hydroxy-2-methylphenoxy)butoxy)-4-methoxy-N-(methylsulfonyl)benzamide], for which the EC50 on mGlu2 worked out at 0.25 ± 0.055 µM; on mGlu3 (PAM mode, mean ± SEM), 0.265 ± 0.05 µM. Further, the results for the Emax on mGlu2 and on mGlu3 were 98.1 ± 1.1% and 110 ± 1.3%, respectively.

Turning to `COC(=O)c1ccc(OCCCCOc2ccc(C(=O)CC3CCCC3)c(C)c2C)cc1` [Compound 15, Methyl 4-(4-(4-(2-cyclopentylacetyl)-2,3-dimethylphenoxy)butoxy)benzoate], the EC50 on mGlu2 was more than 30 µM; at mGlu3 (PAM mode, mean ± SEM) it was more than 30 µM.

Consider `Cc1c(OCc2cccc(-c3cc(F)cc(C(=O)O)c3)c2)ccc(C(=O)CC(C)(C)C)c1O` [compound 136, 3′-((4-(3,3-Dimethylbutanoyl)-3-hydroxy-2-methylphenoxy)methyl)-5-fluoro-[1,1′-biphenyl]-3-carboxylic acid], for which the EC50 on mGlu2 was 0.308 ± 0.04 µM; on mGlu3 (PAM mode, mean ± SEM), 0.496 ± 0.086 µM. In addition, the Emax at mGlu2 came to 93.3 ± 2.1%; on mGlu3, 77.4 ± 7.1%.

For `Cc1c(OCCCCOc2ccc(C(=O)O)cc2)ccc(C(=O)CC2CCCC2)c1C` [Compound 19, 4-(4-(4-(2-Cyclopentylacetyl)-2,3-dimethylphenoxy)butoxy)benzoic acid], the EC50 at mGlu2 is more than 30 µM; at mGlu3 (PAM mode, mean ± SEM), more than 30 µM.

In the case of `CNC(=O)c1ccc(OC)c(OCCCCOc2ccc(C(=O)CC(C)(C)C)c(O)c2C)c1` [compound 102, 3-(4-(4-(3,3-Dimethylbutanoyl)-3-hydroxy-2-methylphenoxy)butoxy)-4-methoxy-N-methylbenzamide], the EC50 is 5.16 ± 0.082 µM on mGlu2 and more than 10 µM on mGlu3 (PAM mode, mean ± SEM). For the same compound, the Emax on mGlu2 came to 70.9 ± 2.3%; on mGlu3 it was 39.2 ± 5.2%.

For the compound `Cc1c(OCc2cccc(COc3ccc(C(=O)O)cc3)c2)ccc(C(=O)CC(C)C)c1C` [compound 123], the EC50 was more than 30 µM on mGlu2 and more than 30 µM at mGlu3 (PAM mode, mean ± SEM).

Turning to `Cc1c(OCc2cccc(COc3ccc(C(=O)O)cc3)c2)ccc(C(=O)CC2CCCC2)c1C` [compound 124], the EC50 on mGlu2 was more than 30 µM; at mGlu3 (PAM mode, mean ± SEM), more than 30 µM.
